According to PMC6114962, “A Phase Ib, open-label, dose-finding study of alpelisib in combination with paclitaxel in patients with advanced solid tumors” (Oncotarget, 2018):
Read-outs that look alike come from different tables or passages of the source. One block for each compound: values may come before it.

Experiments:
patients [1] = settings: cited from earlier work
[2] = system: patients with advanced solid tumors; experiment: Phase Ib dose finding: dose-limiting toxicities and MTD of alpelisib QD plus paclitaxel; assay type: in vivo, human; settings: with paclitaxel 80 mg/m^2 QW; BLRM with EWOC
Experimental: In the dose-finding phase, the primary objective was to determine the MTD and/or recommended Phase II dose (RP2D) of alpelisib QD when administered with paclitaxel 80 mg/m^2 QW in patients with advanced solid tumors, and the secondary objectives were to assess safety and tolerability and to characterize the pharmacokinetic (PK) profile.
Patients received oral alpelisib QD in 28-day cycles (300, 250, or 150 mg) and paclitaxel 80 mg/m^2 QW as a 1-hour (±15 minutes) IV infusion after standard premedication (per local standard practice). Patients received treatment until disease progression, unacceptable toxicity, patient decision, death, or discontinuation for any other reason. […]
An adaptive 5-parameter Bayesian logistic regression model (BLRM) with escalation with overdose control (EWOC) guided the dose-finding of each combination. […] Available data were analyzed after Cycle 1 per cohort of patients to decide the dose for the next cohort and/or determine the MTD/RP2D. […]

[3] = system: patients with advanced solid tumors; assay type: in vivo
Experimental: Patients received oral alpelisib QD in 28-day cycles (300, 250, or 150 mg) and paclitaxel 80 mg/m^2 QW as a 1-hour (±15 minutes) IV infusion after standard premedication (per local standard practice). Patients received treatment until disease progression, unacceptable toxicity, patient decision, death, or discontinuation for any other reason.
(§1) PK samples for alpelisib were collected from all patients.
(§2) Analysis sets were as follows: full analysis set (FAS), all patients who received at least one dose of alpelisib and/or paclitaxel; safety set, all patients who received at least one dose of alpelisib and/or paclitaxel and had at least one valid post-baseline safety assessment; dose-determining set (DDS), all patients from the safety set who during Cycle 1 either met the minimum exposure criterion and had sufficient safety evaluations, or experienced a DLT; and pharmacokinetic analysis set, all patients in the FAS who received at least one dose of alpelisib and/or paclitaxel and had at least one evaluable concentration measurement.

[4] = Plasma pharmacokinetics of paclitaxel and alpelisib in Cycle 1; assay type: in vivo, human; settings: for Tmax / AUC(0-t) / Cmax / AUC(0-inf): human, plasma; for AUC(0-t): read-out: AUC0–24, geometric mean (CV%); for Cmax: read-out: Cmax, geometric mean (CV%); for AUC(0-inf): read-out: AUCinf, geometric mean (CV%)
Excerpt: as §1, §2

[5] = system: patients with advanced solid tumors; settings: cited from earlier work
patients [6] = system: patients; set-up: method as in PMID 22184370; settings: paclitaxel 80 mg/m^2 QW, 1-hour IV infusion; cited from earlier work
[7] = alpelisib 150 mg plus paclitaxel
[8] = alpelisib 250 mg plus paclitaxel
[9] = alpelisib 300 mg plus paclitaxel
[10] = po, oral alpelisib 150 mg QD + paclitaxel, C1D8
[11] = po, oral alpelisib 250 mg QD + paclitaxel, C1D8
[12] = po, oral alpelisib 300 mg QD + paclitaxel, C1D8
[13] = iv, 80 mg/m^2, paclitaxel 80 mg/m^2 IV, C1D1, alpelisib 150 mg + paclitaxel cohort
[14] = iv, 80 mg/m^2, paclitaxel 80 mg/m^2 IV, C1D1, alpelisib 250 mg + paclitaxel cohort
[15] = iv, paclitaxel 80 mg/m^2 IV, C1D8, alpelisib 150 mg + paclitaxel cohort
[16] = paclitaxel 80 mg/m^2 IV, C1D1, alpelisib 300 mg + paclitaxel cohort
[17] = paclitaxel 80 mg/m^2 IV, C1D8, alpelisib 250 mg + paclitaxel cohort

SMILES: Cc1nc(NC(=O)N2CCC[C@H]2C(N)=O)sc1-c1ccnc(C(C)(C)C(F)(F)F)c1 [alpelisib]
- MTD of alpelisib with nab-paclitaxel (patients [1]; Phase I study (N=10)): not reached
- recommended Phase II dose, alpelisib (patients [1]; plus nab-paclitaxel 100 mg/m^2 IV weekly): 350 mg daily
- MTD of alpelisib when administered with paclitaxel [2]: 150 mg QD
- rate of alpelisib dose interruption [3, 7]: 66.7%
- rate of alpelisib dose reduction (at least one) [3, 7]: 22.2%
- rate of alpelisib dose interruption [3, 8]: 75.0%
- rate of alpelisib dose reduction (at least one) [3, 8]: 50.0%
- rate of alpelisib dose interruption [3, 9]: 66.7%
- rate of alpelisib dose reduction (at least one) [3, 9]: 66.7%
- impact of steady-state alpelisib exposure on paclitaxel metabolism ([4]; alpelisib 150–300 mg): no impact
- Cmax and AUC0-24 after oral administration versus dose ([4]; alpelisib 150–300 mg QD): increased in a dose-dependent manner
- Tmax ([4]; oral, Cycle 1 Day 8, alpelisib 150–300 mg, read-out: Median time to maximum concentration (Tmax) across dose levels): 3.17 to 4.17 h
- AUC(0-t) [4, 10]: 13800 ng·h/mL
- Cmax [4, 10]: 1390 ng/mL
- Tmax ([4]; po, oral alpelisib 150 mg QD + paclitaxel, C1D8, read-out: Tmax, median (range)): 3.17 h
- AUC(0-t) [4, 11]: 27700 ng·h/mL
- Cmax [4, 11]: 3750 ng/mL
- Tmax ([4]; po, oral alpelisib 250 mg QD + paclitaxel, C1D8, read-out: Tmax, median (range)): 3.23 h
- AUC(0-t) [4, 12]: 37100 ng·h/mL
- Cmax [4, 12]: 3000 ng/mL
- Tmax ([4]; po, oral alpelisib 300 mg QD + paclitaxel, C1D8, read-out: Tmax, median (range)): 4.17 h
- Grade 3/4 AE: hyperglycemia ([5]; single-agent alpelisib 30–450 mg QD or 120–200 mg twice daily, N=134): 23.9%
- all-grade treatment-related AE: hyperglycemia ([5]; single-agent alpelisib, N=134): 51.5%
- maximum tolerated dose (MTD), single agent ([5]; single-agent alpelisib, advanced solid tumors): 400 mg once daily (QD)
- hyperglycemia DLT during dose finding ([5]; single-agent alpelisib, seven of 68 evaluable patients): 10.3%
- dose from which preliminary anti-tumor activity was exhibited ([5]; single-agent alpelisib, solid tumors): ≥ 270 mg QD
- all-grade treatment-related AE: decreased appetite ([5]; single-agent alpelisib): 41.8%
- all-grade treatment-related AE: diarrhea ([5]; single-agent alpelisib): 40.3%
- all-grade treatment-related AE: nausea ([5]; single-agent alpelisib): 50.0%
- all-grade treatment-related AE: vomiting ([5]; single-agent alpelisib): 31.3%

- plasma drug exposure (AUCinf and Cmax), Cycle 1 Day 1 versus Cycle 1 Day 8 ([4]; absence versus presence of alpelisib, except Cmax at alpelisib 300 mg C1D8): comparable
- AUC(0-inf) [4, 13]: 4360 ng·h/mL
- Cmax [4, 13]: 2650 ng/mL
- AUC(0-inf) [4, 14]: 4320 ng·h/mL
- Cmax [4, 14]: 2770 ng/mL
- Cmax ([4]; iv, 80 mg/m^2, paclitaxel 80 mg/m^2 IV, C1D1, alpelisib 300 mg + paclitaxel cohort): 2700 ng/mL
- AUC(0-inf) [4, 15]: 4370 ng·h/mL
- Cmax [4, 15]: 2790 ng/mL
- Cmax ([4]; iv, paclitaxel 80 mg/m^2 IV, C1D8, alpelisib 250 mg + paclitaxel cohort): 2960 ng/mL
- AUC(0-inf) ([4]; iv, paclitaxel 80 mg/m^2 IV, C1D8, alpelisib 300 mg + paclitaxel cohort): 4470 ng·h/mL
- Tmax ([4]; iv, paclitaxel 80 mg/m^2 IV, C1D8, alpelisib 300 mg + paclitaxel cohort, read-out: Tmax, median (range)): 0.75 h
- Tmax, median (range) ([4]; paclitaxel 80 mg/m^2 IV, C1D1, alpelisib 150 mg + paclitaxel cohort): 1 (0.87–1.17) [8] hours
- Tmax, median (range) ([4]; paclitaxel 80 mg/m^2 IV, C1D1, alpelisib 250 mg + paclitaxel cohort): 1 (0.45–1.05) [3] hours
- AUCinf, geometric mean (CV%) [4, 16]: 5000 (24) [5] ng·hr/ml
- Tmax, median (range) [4, 16]: 1 (0.5–1.28) [5] hours
- Tmax, median (range) ([4]; paclitaxel 80 mg/m^2 IV, C1D8, alpelisib 150 mg + paclitaxel cohort): 1 (0.5–1.07) [9] hours
- AUCinf, geometric mean (CV%) [4, 17]: 5000 (42.7) [2] ng·hr/ml
- Tmax, median (range) [4, 17]: 0.8 (0.5–1.17) [3] hours
- Cmax, geometric mean (CV%) ([4]; paclitaxel 80 mg/m^2 IV, C1D8, alpelisib 300 mg + paclitaxel cohort): 1250 (114) [6] ng/ml
SMILES: CC(=O)O[C@H]1C(=O)[C@@]2(C)[C@H]([C@H](OC(=O)c3ccccc3)[C@]3(O)C[C@H](OC(=O)[C@H](O)[C@@H](NC(=O)c4ccccc4)c4ccccc4)C(C)=C1C3(C)C)[C@]1(OC(C)=O)CO[C@@H]1C[C@@H]2O [paclitaxel]
- all-grade AE: abdominal pain (patients [6]): 33%
- all-grade AE: alopecia (patients [6]): 36%
- all-grade AE: fatigue (patients [6]): 47%
- all-grade AE: nausea (patients [6]): 31%
- all-grade AE: peripheral neuropathy (patients [6]): 31%
